In one experiment the target is T1, human Nav1.7 (hNav1.7) (Homo sapiens, UniProt Q15858).
T1 construct: expressed in transfected cells
T1 sequence (Q15858 whole entry): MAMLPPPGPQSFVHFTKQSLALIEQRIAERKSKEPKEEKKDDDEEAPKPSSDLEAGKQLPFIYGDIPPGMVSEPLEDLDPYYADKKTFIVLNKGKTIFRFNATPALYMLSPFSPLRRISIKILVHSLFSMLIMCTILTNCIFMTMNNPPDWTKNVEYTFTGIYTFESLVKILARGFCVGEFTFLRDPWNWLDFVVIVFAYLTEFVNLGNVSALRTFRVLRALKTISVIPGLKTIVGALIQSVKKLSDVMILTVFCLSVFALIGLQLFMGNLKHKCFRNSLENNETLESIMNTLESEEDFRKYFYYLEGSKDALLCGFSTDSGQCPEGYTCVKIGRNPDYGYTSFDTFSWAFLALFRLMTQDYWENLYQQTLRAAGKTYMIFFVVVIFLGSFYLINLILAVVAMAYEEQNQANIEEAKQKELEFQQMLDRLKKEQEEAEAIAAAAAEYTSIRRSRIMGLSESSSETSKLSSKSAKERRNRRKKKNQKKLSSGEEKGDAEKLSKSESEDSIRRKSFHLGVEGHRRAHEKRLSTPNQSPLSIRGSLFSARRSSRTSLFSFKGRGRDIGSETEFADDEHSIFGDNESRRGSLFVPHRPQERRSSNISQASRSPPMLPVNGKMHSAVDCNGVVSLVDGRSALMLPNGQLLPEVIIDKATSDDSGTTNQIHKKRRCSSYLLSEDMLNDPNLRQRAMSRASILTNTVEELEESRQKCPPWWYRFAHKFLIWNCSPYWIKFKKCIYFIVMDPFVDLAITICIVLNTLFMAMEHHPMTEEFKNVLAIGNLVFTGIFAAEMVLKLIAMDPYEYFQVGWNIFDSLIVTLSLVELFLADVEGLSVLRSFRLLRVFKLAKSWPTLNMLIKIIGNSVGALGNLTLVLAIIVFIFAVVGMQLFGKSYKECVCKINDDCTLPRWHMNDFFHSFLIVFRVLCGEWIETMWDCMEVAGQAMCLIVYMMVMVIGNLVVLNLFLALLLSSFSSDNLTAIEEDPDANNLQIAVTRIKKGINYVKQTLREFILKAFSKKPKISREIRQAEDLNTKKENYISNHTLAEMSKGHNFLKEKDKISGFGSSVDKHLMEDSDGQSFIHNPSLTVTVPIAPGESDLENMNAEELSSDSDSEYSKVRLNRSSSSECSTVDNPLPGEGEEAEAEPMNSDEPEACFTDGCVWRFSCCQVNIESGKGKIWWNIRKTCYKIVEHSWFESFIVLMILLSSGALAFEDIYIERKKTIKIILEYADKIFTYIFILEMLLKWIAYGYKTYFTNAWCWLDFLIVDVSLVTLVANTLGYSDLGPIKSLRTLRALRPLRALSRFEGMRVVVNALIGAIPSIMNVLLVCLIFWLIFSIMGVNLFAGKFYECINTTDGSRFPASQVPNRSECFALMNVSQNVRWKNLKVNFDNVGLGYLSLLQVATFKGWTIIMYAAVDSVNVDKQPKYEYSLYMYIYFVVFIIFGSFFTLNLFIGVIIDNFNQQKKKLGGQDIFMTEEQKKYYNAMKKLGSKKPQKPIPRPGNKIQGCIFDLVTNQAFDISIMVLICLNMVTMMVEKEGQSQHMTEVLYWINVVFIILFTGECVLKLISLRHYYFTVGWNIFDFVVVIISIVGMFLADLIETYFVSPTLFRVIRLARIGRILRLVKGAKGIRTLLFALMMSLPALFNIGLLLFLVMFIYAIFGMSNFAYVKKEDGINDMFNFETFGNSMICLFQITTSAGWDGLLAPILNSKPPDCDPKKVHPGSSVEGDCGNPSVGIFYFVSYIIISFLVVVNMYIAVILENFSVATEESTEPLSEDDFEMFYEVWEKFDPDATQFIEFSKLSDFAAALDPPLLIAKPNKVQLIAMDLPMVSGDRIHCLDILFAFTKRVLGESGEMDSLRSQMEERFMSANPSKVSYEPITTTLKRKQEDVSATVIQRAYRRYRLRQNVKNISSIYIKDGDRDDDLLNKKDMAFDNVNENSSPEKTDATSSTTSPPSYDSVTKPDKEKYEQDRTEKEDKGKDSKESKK
The experiment is described as follows: hNav1.7 whole-cell patch-clamp electrophysiology (automated PatchXpress 7000A or manual) in stably expressing 293 cells. Type of experiment: cell-based. The note with it: average IC50. As for the experimental part:
Compounds were tested on human Nav1.7 (hNav1.7) expressed stably in 293 cells, which have no endogenous sodium channels. Two forms of whole-cell patch-clamp assays were used. In both, peak current through Nav1.7 was evoked by a depolarizing voltage pulse, and currents were monitored as a function of time in response to exposure to several different concentrations of drug. Automated electrophysiology uses the PatchXpress 7000A system. Up to sixteen cells at a time were voltage-clamped in parallel, and the steady-state voltage dependence of inactivation was determined experimentally for each cell. For each cell, fractional inactivation was set at 20%, and peak current through Nav1.7 as a function of time was measured in response to increasing concentrations of test compound. Manual electrophysiology refers to conventional whole-cell patch-clamping (Hamill et al., 1981). After formation of the whole-cell clamp, cells were lifted off the bottom of the dish with the patch pipette and positioned directly in front of an array of glass microperfusion tubes each with internal diameter about 250 microns, with individual compound concentrations flowing from each tube. Current as a function of time in response to increasing drug concentrations was measured with Nav1.7 fully in the resting state (holding voltage set to −140 mV) and on the same cells with the holding voltage set to produce about 20% inactivation. Compounds were not applied for a prespecified time, but for as long as required to achieve a stable level of block. For both forms of electrophysiology, offline analysis was used to correct for rundown of channel current and to determine percent inhibition as a function of drug concentration. IC50 were determined by fitting to the Hill equation.
In turn, `Cc1c(Nc2ncnc(N3CCc4cc(Br)ccc4C3)n2)cccc1C(N)=O` [Example 293] returned an IC50 of over 30 µM.
The compound `CNC(=O)c1cccc(Nc2ncnc(N(C)Cc3nc(-c4ccccc4)no3)n2)c1` [Example 280] yielded an IC50 of 27.7 µM.
On the same count and under the same terms, then `CNC(=O)c1cccc(Nc2ncnc(N3CC(Oc4ccc(F)cc4)C3)n2)c1F` [Example 270], with 21.1 µM; and `CNC(=O)c1cccc(Nc2ncnc(N3CC(C)(Oc4ccccc4)C3)n2)c1` [Example 263], with 18.1 µM.
Still for that read-out and setting: the value for `CNC(=O)c1cccc(Nc2ncnc(N3CCc4ccc(C(F)(F)F)cc4C3)n2)c1` [Example 298] was over 30 µM.

The experiment is the same for the next values; noted with them: average IC50, human Nav1.7.
`CNC(=O)c1cccc(Nc2ncnc(N3CC(COc4ccc(F)cc4)C3)n2)c1` [Example 163] registered an IC50 of 3.71 µM.
Turning to `CNC(=O)c1cccc(Nc2ncnc(N3CC(Oc4ccc(C(C)C)cc4)C3)n2)c1` [Example 42], 0.57 µM corresponded to half-maximal inhibition (IC50).
Still for that read-out and setting: then `CNC(=O)c1cccc(Nc2ncnc(N3CCC(c4ccc(C#N)c(C(F)(F)F)c4)CC3)n2)c1` [Example 215], with 8.59 µM; and `CNC(=O)c1cccc(Nc2ncnc(N3CCC(C(=O)c4ccccc4)CC3)n2)c1` [Example 88], with 1.24 µM.
Same read-out and setting: then `CNC(=O)c1cccc(Nc2ncnc(N3CCN(c4ccccc4F)CC3)n2)c1` [Example 95], with 1.35 µM; and `CNC(=O)c1cccc(Nc2ncnc(N3CCN(c4cccc(Cl)c4)CC3)n2)c1` [Example 69], with 0.87 µM; and `CNC(=O)c1cccc(Nc2ncnc(N3CC(Oc4ccc(SC(F)(F)F)cc4)C3)n2)c1` [Example 83], with 1.06 µM.
Same read-out and setting: then `CNC(=O)c1cccc(Nc2ncnc(N3CCc4c(cccc4OCC(F)(F)F)C3)n2)c1` [Example 137], with 2.73 µM.
As to `CN(C)C(=O)c1cccc(Nc2ncnc(N3CCC(OCc4ccc(OC(F)(F)F)cc4)CC3)n2)c1` [Example 240], the IC50 was determined as 11.1 µM.
In the case of `CNC(=O)c1cc(Nc2ncnc(N3CC(COc4ccc(Cl)cc4)C3)n2)ccc1F` [Example 70], the IC50 came out at 0.89 µM.
Same read-out and setting: the value for `CNC(=O)c1cccc(Nc2ncnc(N3CCC(Oc4ccc(OC(F)(F)F)c(F)c4)CC3)n2)c1` [Example 68] was 0.86 µM.
On the same count and under the same terms, then `CNC(=O)c1cccc(Nc2ncnc(N3CCC(Nc4ccccc4)CC3)n2)c1` [Example 257], with 16.9 µM.
The same measure, in the same setting: the value for `CNC(=O)c1cccc(Nc2ncnc(N3CCN(c4ccc(C)cc4)CC3)n2)c1` [Example 34] was 0.47 µM; that for `CNC(=O)c1cccc(Nc2ncnc(N3CC(Oc4ccccc4)C3)n2)c1` [Example 33] was 0.45 µM.
`CNC(=O)c1cccc(Nc2ncnc(N3CCC(c4ccc(C#N)c(OC(F)(F)F)c4)CC3)n2)c1` [Example 248] displayed an IC50 of 12.9 µM.
With `CNC(=O)c1cccc(Nc2cc(N3CC(Oc4ccc(F)cc4)C3)ncn2)c1` [Example 218], it took 8.68 µM to reach half-maximal inhibition (IC50).
Same read-out and setting: the value for `CNC(=O)c1cccc(Nc2ncnc(N3CCC(Oc4ccc(F)c(OC(F)(F)F)c4)CC3)n2)c1` [Example 193] was 5.79 µM; that for `CNC(=O)c1cccc(Nc2ncnc(N3CC(Oc4cc(F)cc(F)c4)C3)n2)c1` [Example 187] was 5.43 µM; that for `CNC(=O)c1c(F)ccc(Nc2ncnc(N3CC(Oc4ccc(Cl)cc4)C3)n2)c1F` [Example 183] was 5.19 µM.
Same read-out and setting: the value for `CNC(=O)c1cccc(Nc2nccc(N3CC(Oc4ccc(Cl)c(F)c4)C3)n2)c1` [Example 55] was 0.74 µM.
On to `CNC(=O)c1cccc(Nc2ncnc(N3CC(COc4ccc(Cl)cc4)C3)n2)c1` [Example 40], for which 0.5 µM corresponded to half-maximal inhibition (IC50).
`CNC(=O)c1cccc(Nc2ncnc(N3CCN(c4ccccc4C(F)(F)F)CC3)n2)c1` [Example 178] gave an IC50 of 4.78 µM. Against the preceding compound, the IC50 is about 9.6-fold higher.
`CNC(=O)c1cccc(Nc2ncnc(N3CCC(COCC4CC4)CC3)n2)c1` [Example 261] came in with an IC50 of 17.7 µM.
Same read-out and setting: then `CNC(=O)c1cccc(Nc2ncnc(N3CCN(c4cccc(OC(F)(F)F)c4)CC3)n2)c1` [Example 23], with 0.35 µM.
On the same count and under the same terms, then `CNC(=O)c1cccc(Nc2ncnc(N3CCC(Oc4ccc(OC(F)(F)F)cc4)CC3)n2)c1` [Example 58], with 0.76 µM; and `CNC(=O)c1cccc(Nc2ncnc(N3CCC(OCc4cccc(C(F)(F)F)c4)CC3)n2)c1` [Example 239], with 10.8 µM; and `CNC(=O)c1ccc(C)c(Nc2ncnc(N3CC(Oc4ccc(F)cc4)C3)n2)c1` [Example 160], with 3.65 µM.
Still for that read-out and setting: then `CNC(=O)c1cccc(Nc2ncnc(N3CCN(c4ccc(OC(F)(F)F)cc4)CC3)n2)c1` [Example 82], with 1.06 µM; and `CNC(=O)c1cccc(Nc2ncnc(N3CC(Oc4cc(F)ccc4F)C3)n2)c1` [Example 177], with 4.72 µM; and `CNC(=O)c1cccc(Nc2ncnc(N3CCC(c4nc(C(C)C)no4)CC3)n2)c1` [Example 231], with 9.66 µM.
Compound `CNC(=O)c1cc(F)cc(Nc2ncnc(N3CC(Oc4ccc(Cl)cc4)C3)n2)c1` [Example 37] returned a half-inhibitory concentration (IC50) of 0.49 µM. Compared with the last compound, the IC50 is about 20-fold lower.
On the same count and under the same terms, then `CNC(=O)c1cccc(Nc2ncnc(N3CCC(Oc4ccccn4)CC3)n2)c1` [Example 175], with 4.63 µM; and `CNC(=O)c1cccc(Nc2ncnc(N3CCN(c4cccc(C)n4)CC3)n2)c1` [Example 76], with 0.97 µM; and `CNC(=O)c1cccc(Nc2ncnc(N3CCC(C#N)(c4ccc(F)cc4)CC3)n2)c1` [Example 245], with 12.5 µM.
For `CNC(=O)c1cccc(Nc2ncnc(N3CC(Oc4cc(C)ccc4F)C3)n2)c1` [Example 155], the IC50 came to 3.17 µM.
`CNC(=O)c1cccc(Nc2ncnc(N3CC(c4ccc(Cl)cc4)C3)n2)c1` [Example 184] displayed an IC50 of 5.23 µM.
The same measure, in the same setting: the value for `CNC(=O)c1cccc(Nc2nccc(N3CC(Oc4ccc(F)cc4F)C3)n2)c1` [Example 125] was 2.16 µM; that for `CNC(=O)c1cccc(Nc2ncnc(N3CCC(c4ccc(C#N)cc4)CC3)n2)c1` [Example 170] was 4.3 µM.
The same measure, in the same setting: then `CNC(=O)c1cc(F)cc(Nc2ncnc(N3CC(COc4ccc(C(F)(F)F)cc4)C3)n2)c1` [Example 112], with 1.78 µM.
Still for that read-out and setting: then `CNC(=O)c1cccc(Nc2ncnc(N3CCc4c(F)cccc4C3)n2)c1` [Example 225], with 9.31 µM; and `CNC(=O)c1cccc(Nc2ncnc(N3CCc4ccc(OC)cc4C3)n2)c1` [Example 220], with 8.85 µM.
In turn, `CNC(=O)c1cccc(Nc2ncnc(N3CC(Oc4c(F)cc(Cl)cc4F)C3)n2)c1` [Example 153] had an IC50 of 3.16 µM.
Compound `CNC(=O)c1cccc(Nc2ncnc(N3CC(Oc4ccc(F)c(F)c4F)C3)n2)c1` [Example 226] registered an IC50 of 9.35 µM.
Still for that read-out and setting: the value for `CNC(=O)c1cccc(Nc2ncnc(N3CCc4c(cccc4OC(F)(F)F)C3)n2)c1` [Example 123] was 2.13 µM; that for `CNC(=O)c1cccc(Nc2ncnc(N3CCN(c4ccccc4C)CC3)n2)c1` [Example 89] was 1.26 µM; that for `CNC(=O)c1cccc(Nc2ncnc(N3CC=C(c4csc(-c5ccccc5)n4)CC3)n2)c1` [Example 46] was 0.63 µM.
Same read-out and setting: the value for `CNC(=O)c1cccc(Nc2ncnc(N3CCC(COc4ccccc4)CC3)n2)c1` [Example 143] was 2.8 µM.
Still for that read-out and setting: then `CNC(=O)c1cccc(Nc2ncnc(N3CC(COCc4ccc(Cl)cc4)C3)n2)c1` [Example 241], with 11.1 µM; and `O=C(NC1CC1)c1cccc(Nc2ncnc(N3CC(Oc4ccc(F)cc4)C3)n2)c1` [Example 205], with 7.42 µM.
As for `CNC(=O)c1cccc(Nc2ncnc(N3CC(Oc4ccccc4OC)C3)n2)c1` [Example 204], the IC50 is 7.42 µM.
On the same count and under the same terms, then `CNC(=O)c1cccc(Nc2nccc(N3CC(Oc4ccc(Cl)c(C)c4)C3)n2)c1` [Example 19], with 0.31 µM; and `CNC(=O)c1cccc(Nc2ncnc(N3CCCC(Oc4ccccc4Cl)C3)n2)c1` (stereo not drawn) [Example 212], with 8.31 µM.
On the same count and under the same terms, the value for `CNC(=O)c1cccc(Nc2ncnc(N3CC(Oc4ccc(F)cc4)C3)n2)c1` [Example 61] was 0.81 µM; that for `CNC(=O)c1cccc(Nc2ncnc(N3CCC(Oc4cccc(F)c4)CC3)n2)c1` [Example 48] was 0.65 µM.

The same experiment, now with this note: human Nav1.7 stably expressed in 293 cells; whole-cell patch clamp; average IC50 from Hill fit.
For the compound `CNC(=O)c1cccc(Nc2nccc(N3CC(Oc4ccc(Cl)cc4Cl)C3)n2)c1` [Example AAA, 3-(4-(3-(2,4-dichlorophenoxy)azetidin-1-yl)pyrimidin-2-ylamino)-N-methylbenzamide], the IC50 worked out at 0.52 µM.
Still for that read-out and setting: then `CNC(=O)c1cccc(Nc2nccc(N3CC(Oc4ccc(Cl)cc4C)C3)n2)c1` [Example N, 3-((4-(3-(4-chloro-2-methylphenoxy)-1-azetidinyl)-2-pyrimidinyl)amino)-N-methylbenzamide], with 0.26 µM; and `CNC(=O)c1cccc(Nc2nccc(N3CC(Oc4ccc(F)cc4F)C3)n2)c1` [Example H, 3-((4-(3-(2,4-difluorophenoxy)-1-azetidinyl)-2-pyrimidinyl)amino)-N-methylbenzamide], with 2.16 µM; and `CNC(=O)c1cccc(Nc2nc(N3CC(Oc4ccc(F)cc4)C3)ncc2F)c1` [Example AH, 3-((5-fluoro-2-(3-(4-fluorophenoxy)-1-azetidinyl)-4-pyrimidinyl)amino)-N-methylbenzamide], with 0.34 µM.

Usually IC50 stands for the concentration needed to halve the response being measured. Higher therefore signals weaker potency in that assay.

The record behind these values is US9334269B2, “Carboxamides as inhibitors of voltage-gated sodium channels” (AMGEN INC., priority 2010, dated 2016).
